The term MIC denotes the lowest concentration that inhibits growth of the organism.

This note sets out measurements from US11851391B2, “Antifungal compounds and methods of forming the same” (University of Kentucky Research Foundation, priority 2018, dated 2023).

Structures are written as SMILES. Converted amounts (≈) assume the structure as drawn. Like-named read-outs stand apart in the source and are kept apart here. Bounds are passed on as bounds.

The test system of data set [1] is Candida krusei ATCC 6258 (strain I). Kind of data set: MIC determination, in vitro antifungal assay (CLSI M27-A3). The class given is cell-based. The settings on record: MIC-0, 48 h at 35° C. The procedure:
(§1) The activity of N,N′-diaryl-bishydrazones 7-22 was tested against a panel of seven strains of C. albicans: ATCC 10231(R) (A), ATCC 64124(R) (B), ATCC MYA-2876(S) (C), ATCC 90819(R) (D), ATCC MYA-2310(S) (E), ATCC MYA-1237(R) (F), and ATCC MYA-1003(R) (G). The activity of these bishydrazones 7-22 was also explored against a panel of three non-albicans Candida strains: C. glabrata ATCC 2001 (H), C. krusei ATCC 6258 (I), and C. parapsilosis ATCC 22019 (J). Finally, the activity of these bishydrazones 7-22 was explored against three Aspergillus strains: A. flavus ATCC MYA-3631 (K), A. nidulans ATCC 38163 (L), and A. terreus ATCC MYA-3633 (M).
(§2) Candida albicans ATCC 10231 (A), C. albicans ATCC 64124 (B), and C. albicans ATCC MYA-2876 (C) were kindly provided by Dr. Jon Y. Takemoto (Utah State University, Logan, UT, USA). C. albicans ATCC 90819 (D), C. albicans ATCC MYA-2310 (E), C. albicans ATCC MYA-1237 (F), C. albicans ATCC MYA-1003 (G), Candida glabrata ATCC 2001 (H), Candida krusei ATCC 6258 (I), Candida parapsilosis ATCC 22019 (J), Aspergillus flavus ATCC MYA-3631 (K), and Aspergillus terreus ATCC MYA-3633 (M) were obtained from the American Type Culture Collection (ATCC; Manassas, VA, USA). Aspergillus nidulans ATCC 38163 (L) was received from Dr. Jon S. Thorson (University of Kentucky, Lexington, KY, USA). Filamentous fungi and yeasts were cultivated at 35° C. in RPMI 1640 medium (with 1-glutamine, without sodium biocarbonate, Sigma-Aldrich, St. Louis, MO) buffered to a pH of 7.0 with 0.165 M morpholinepropanesulfonic acid (MOPS) buffer (Sigma-Aldrich).
(§3) A single colony of freshly prepared yeast cells was used to inoculate 5 mL of yeast extract peptone dextrose (YPD) broth prior to incubation overnight with shaking at 200 rpm at 35° C. From the actively growing yeast culture, 100 μL were then transferred to 900 μL of sterile ddH2O and re-adjusted to achieve OD600 of 0.12 (˜1×10^6 CFU/mL). The cell suspension was further diluted to achieve 2-4×10^3 CFU/mL in RPMI 1640 medium. […] The final concentration of DMSO was ensured to be <1.25% in all experiments.

The subject of data set [2] is Candida glabrata ATCC 2001 (strain H). The data set is described as above. The class given is cell-based. The settings on record: Nakaseomyces glabratus, ATCC2001, 48 h, MIC-0, 48 h at 35° C., read-out: MIC. Here is the method:
as §1, §2, §3

In data set [3] the test system is murine red blood cells (mRBCs). The settings on record: for Percentage of hemolysis (±SDEV): mouse, 60 min. Here is the method: Thus, the hemolytic activity for these bishydrazones was investigated against murine red blood cells (mRBCs).
Murine red blood cells (mRBCs) were prepared by suspending 1 mL of murine blood in 3 mL of PBS prior to centrifugation at 1,000 rpm for 5 min. The mRBCs were washed four times in PBS and resuspended in the same buffer to a final concentration of 10^7 mRBC/mL. […] The tubes were incubated at 37° C. for 60 min. […] Eppendorf tubes containing 200 μL of ddH2O and 2 μL of 1% v/v Triton™ X-100 served as negative (blank) and positive controls, respectively. The percentage of hemolysis was calculated using the following equation: % hemolysis=[(absorbance of sample)−(absorbance of blank)]×100/(absorbance of positive control).

For data set [4], the system named is Candida parapsilosis ATCC 22019 (strain J). Description: MIC determination, in vitro antifungal assay (CLSI M27-A3). The data set is classed as cell-based. The settings on record: strain J, MIC-0, 48 h at 35° C. Here is the method:
as §1, §2
as §3, with “The MIC values of compounds 7a-24c against yeast cells (strains A-J) were determined in 96-well plates as described in the CLSI document M27-A3 with minor modifications. A” for “A”, “experiments. The MIC values for compounds 7a-24c and CAS were defined as the minimum drug concentration that yielded complete inhibition (also known as MIC-0).” for “experiments.”

For data set [5], the system named is Candida albicans ATCC 10231(R) (strain A). Described as above. The settings on record: MIC-0 (no visible growth), 48 h at 35° C. The class given is cell-based. Here is the method:
as §1, §2
as §3, with “The MIC values of compounds 7a-24c against yeast cells (strains A-J) were determined in 96-well plates as described in the CLSI document M27-A3 with minor modifications. A” for “A”, “experiments. The MIC values for compounds 7a-24c and CAS were defined as the minimum drug concentration that yielded complete inhibition (also known as MIC-0).” for “experiments.”

Data set [6] deals with C. albicans ATCC 90819(R) (strain D). The data set is described as above. The data set is classed as cell-based, Candida albicans. The settings on record: Candida albicans, ATCC90819, 48 h, MIC-0, 48 h at 35° C., read-out: MIC. Here is the method: as §1, §2
as §3, with “The MIC values of compounds 7a-24c against yeast cells (strains A-J) were determined in 96-well plates as described in the CLSI document M27-A3 with minor modifications. A” for “A”, “experiments. The MIC values for compounds 7a-24c and CAS were defined as the minimum drug concentration that yielded complete inhibition (also known as MIC-0).” for “experiments.”

The subject of data set [7] is C. albicans ATCC MYA-2310(S) (strain E). The description is as above. The class given is cell-based, Candida albicans. The settings on record: Candida albicans, 48 h, MIC-0, 48 h at 35° C., read-out: MIC. The procedure:
as §1, §2
as §3, with “The MIC values of compounds 7a-24c against yeast cells (strains A-J) were determined in 96-well plates as described in the CLSI document M27-A3 with minor modifications. A” for “A”, “experiments. The MIC values for compounds 7a-24c and CAS were defined as the minimum drug concentration that yielded complete inhibition (also known as MIC-0).” for “experiments.”

The test system of data set [8] is C. albicans ATCC 64124(R) (strain B). The data set is described as above. The settings on record: Candida albicans, ATCC64124, 48 h, strain B; MIC-0; 48 h at 35° C.; read-out: MIC. The class given is cell-based, Candida albicans. Here is the method: as §1, §2
as §3, with “The MIC values of compounds 7a-24c against yeast cells (strains A-J) were determined in 96-well plates as described in the CLSI document M27-A3 with minor modifications. A” for “A”, “experiments. The MIC values for compounds 7a-24c and CAS were defined as the minimum drug concentration that yielded complete inhibition (also known as MIC-0).” for “experiments.”

Data set [9] has as its system C. albicans ATCC MYA-1237(R) (strain F). The description is as above. The data set is classed as cell-based, Candida albicans. The settings on record: Candida albicans, 48 h, MIC-0, 48 h at 35° C., read-out: MIC. The procedure:
as §1, §2
as §3, with “The MIC values of compounds 7a-24c against yeast cells (strains A-J) were determined in 96-well plates as described in the CLSI document M27-A3 with minor modifications. A” for “A”, “experiments. The MIC values for compounds 7a-24c and CAS were defined as the minimum drug concentration that yielded complete inhibition (also known as MIC-0).” for “experiments.”

Data set [10] relates to Aspergillus terreus ATCC MYA-3633 (strain M). Description: MIC determination against filamentous fungi (CLSI M38-A2). The settings on record: Aspergillus terreus, 48 h, MIC-0, 48 h at 35° C., read-out: MIC. The class given is cell-based. The procedure:
as §1, §2
(§4) Similarly, the MIC values of compounds 7a-24c, as well as that of the two control drugs against filamentous fungi (strains K-M) were determined as previously described in CLSI document M38-A2. Spores were harvested from sporulating cultures growing on potato dextrose agar (PDA) by filtration through sterile glass wool and enumerated by using a hemocytometer to obtain the desired inoculum size. […] Spore suspensions were added to the wells to afford a final concentration of 5×10^5 CFU/mL. The plates were incubated at 35° C. for 48 h. The MIC values of compounds 7a-24c and CAS against filamentous fungi were based on the complete inhibition of growth when compared to the growth control (MIC-0). […] Each test was performed in triplicate.

The subject of data set [11] is Aspergillus nidulans ATCC 38163 (strain L). Described as above. The settings on record: Aspergillus nidulans, ATCC38163, 48 h, MIC-0, 48 h at 35° C., read-out: MIC. The class given is cell-based. The procedure: as §1, §2, §4
The test system of data set [12] is Aspergillus flavus ATCC MYA-3631 (strain K). Described as above. The data set is classed as cell-based. The settings on record: Aspergillus flavus, 48 h, MIC-0, 48 h at 35° C., read-out: MIC. Here is the method: as §1, §2, §4
The test system of data set [13] is C. albicans ATCC MYA-2876(S) (strain C). Description: MIC determination, in vitro antifungal assay (CLSI M27-A3). The class given is cell-based, Candida albicans. The settings on record: Candida albicans, 48 h, MIC-0, 48 h at 35° C., read-out: MIC. Here is the method: as §1, §2, §3
Data set [14] has as its system C. albicans ATCC MYA-1003(R) (strain G). The description is as above. The data set is classed as cell-based, Candida albicans. The settings on record: Candida albicans, 48 h, MIC-0, 48 h at 35° C., read-out: MIC. The procedure: as §1, §2, §3
The mark [15] stands for this setting: Pichia kudriavzevii, ATCC6258, 48 h, read-out: MIC.
The mark [16] stands for this setting: Lodderomyces parapsilosis, ATCC22019, 48 h, read-out: MIC.
Setting [17] is: Candida albicans, ATCC10231, 48 h, read-out: MIC.

Regarding `Fc1cccc(N/N=C/c2ccc(-c3ccc(/C=N/Nc4cccc(F)c4)cc3)cc2)c1` [Compound 12b], the MIC in data set [1] is 15.6 µg/mL (≈ 36.6 µM); in data set [1] (setting [15]), 7.8 to 15.6 µg/mL (≈ 18.3 to 36.6 µM); in data set [2], over 31.3 µg/mL; in data set [4] (setting [16]) it was 3.9 µg/mL (≈ 9.14 µM); in [4], 3.9 µg/mL (≈ 9.14 µM); in [5] (setting [17]), 7.8 to 15.6 µg/mL (≈ 18.3 to 36.6 µM). In addition, the MIC in [5] was 7.8 µg/mL (≈ 18.3 µM); in [6] it was over 31.3 µg/mL; in data set [7], over 31.3 µg/mL; in data set [8] it was over 31.3 µg/mL; in data set [9], over 31.3 µg/mL; in data set [10], over 31.3 µg/mL. Further, the MIC in [11] is over 31.3 µg/mL; in data set [12], 31.3 µg/mL (≈ 73.4 µM); in [13], over 31.3 µg/mL; in data set [14], over 31.3 µg/mL. Moreover, the “hemolytic activity (in words)” value in data set [3] was “lack of hemolytic activity”. Besides, the “Percentage of hemolysis (±SDEV)” value in data set [3] (0.975 μg/mL) is 0.8 ± 0.9%; in [3] (1.95 μg/mL) it was 0%; in data set [3] (3.9 μg/mL), 3.2 ± 3.0%; in [3] (7.8 μg/mL), 2.6 ± 1.6%; in data set [3] (15.6 μg/mL) it was 7.7 ± 3.1%; in data set [3] (31.3 μg/mL), 10.3 ± 0.2%.
Regarding `N=C(N)N/N=C/c1ccc(-c2cccc(/C=N/NC(=N)N)c2)cc1` [Compound 24a], the MIC was 1.95 µg/mL (≈ 6.05 µM) in [1] (setting [15]); 3.9 µg/mL (≈ 12.1 µM) in data set [2]; 1.95 µg/mL (≈ 6.05 µM) in [4] (setting [16]); 1.95 to 3.9 µg/mL (≈ 6.05 to 12.1 µM) in data set [5] (setting [17]); over 31.3 µg/mL in data set [6]; 3.9 µg/mL (≈ 12.1 µM) in [7]. The MIC in data set [8] was 3.9 µg/mL (≈ 12.1 µM); in data set [9], 7.8 µg/mL (≈ 24.2 µM); in [10], 7.8 µg/mL (≈ 24.2 µM); in data set [11], 7.8 µg/mL (≈ 24.2 µM); in data set [12], over 31.3 µg/mL; in data set [13], 3.9 µg/mL (≈ 12.1 µM). Moreover, the MIC in data set [14] was over 31.3 µg/mL. Moreover, the “hemolytic activity (in words)” value in [3] is “lack of hemolytic activity”. The “Percentage of hemolysis (±SDEV)” value in data set [3] (0.975 μg/mL) is given as 0%; in data set [3] (1.95 μg/mL), 1.1 ± 2.2%; in data set [3] (3.9 μg/mL), 1.2 ± 1.7%; in data set [3] (7.8 μg/mL), 2.3 ± 0.5%; in data set [3] (15.6 μg/mL), 3.8 ± 0.5%; in [3] (31.3 μg/mL) it was 3.8 ± 1.7%.
